Measurements published in paper PMC8838411, “Disrupting the MAD2L2-Rev1 Complex Enhances Cell Death upon DNA Damage” (Molecules, 2022).

Key:
[1] = molecular target: T1, GST-MAD2L2 (Homo sapiens, UniProt Q9UI95); test: field-effect biosensing (FEB, Agile R100), immobilised protein; type: binding; settings: PBS; compound 1-50 μM; Hill fit or kon/koff
T1 construct: GST fusion, expressed in E. coli BL21 Star, standard GST purification, amine-immobilised on graphene chip

[2] = molecular target: T2, MAD2L2-Rev1 complex (myc-MAD2L2 and YFP-Rev1) (Homo sapiens, UniProt Q9UI95); test: co-immunoprecipitation (GFP-Trap), immunoblot; type: cell-based; settings: HEK293 cells, 50 μM compound, 24 h
T2 construct: stoichiometry from the docking model; with DNA repair protein REV1
T2 sequence (Q9UI95 whole entry): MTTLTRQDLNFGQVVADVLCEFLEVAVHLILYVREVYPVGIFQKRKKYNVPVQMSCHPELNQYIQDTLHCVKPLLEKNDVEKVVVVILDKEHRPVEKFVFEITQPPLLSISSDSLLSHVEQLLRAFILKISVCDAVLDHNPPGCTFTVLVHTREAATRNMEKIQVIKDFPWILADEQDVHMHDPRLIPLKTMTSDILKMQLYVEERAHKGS
T2 sequence (Q9UBZ9 whole entry partner): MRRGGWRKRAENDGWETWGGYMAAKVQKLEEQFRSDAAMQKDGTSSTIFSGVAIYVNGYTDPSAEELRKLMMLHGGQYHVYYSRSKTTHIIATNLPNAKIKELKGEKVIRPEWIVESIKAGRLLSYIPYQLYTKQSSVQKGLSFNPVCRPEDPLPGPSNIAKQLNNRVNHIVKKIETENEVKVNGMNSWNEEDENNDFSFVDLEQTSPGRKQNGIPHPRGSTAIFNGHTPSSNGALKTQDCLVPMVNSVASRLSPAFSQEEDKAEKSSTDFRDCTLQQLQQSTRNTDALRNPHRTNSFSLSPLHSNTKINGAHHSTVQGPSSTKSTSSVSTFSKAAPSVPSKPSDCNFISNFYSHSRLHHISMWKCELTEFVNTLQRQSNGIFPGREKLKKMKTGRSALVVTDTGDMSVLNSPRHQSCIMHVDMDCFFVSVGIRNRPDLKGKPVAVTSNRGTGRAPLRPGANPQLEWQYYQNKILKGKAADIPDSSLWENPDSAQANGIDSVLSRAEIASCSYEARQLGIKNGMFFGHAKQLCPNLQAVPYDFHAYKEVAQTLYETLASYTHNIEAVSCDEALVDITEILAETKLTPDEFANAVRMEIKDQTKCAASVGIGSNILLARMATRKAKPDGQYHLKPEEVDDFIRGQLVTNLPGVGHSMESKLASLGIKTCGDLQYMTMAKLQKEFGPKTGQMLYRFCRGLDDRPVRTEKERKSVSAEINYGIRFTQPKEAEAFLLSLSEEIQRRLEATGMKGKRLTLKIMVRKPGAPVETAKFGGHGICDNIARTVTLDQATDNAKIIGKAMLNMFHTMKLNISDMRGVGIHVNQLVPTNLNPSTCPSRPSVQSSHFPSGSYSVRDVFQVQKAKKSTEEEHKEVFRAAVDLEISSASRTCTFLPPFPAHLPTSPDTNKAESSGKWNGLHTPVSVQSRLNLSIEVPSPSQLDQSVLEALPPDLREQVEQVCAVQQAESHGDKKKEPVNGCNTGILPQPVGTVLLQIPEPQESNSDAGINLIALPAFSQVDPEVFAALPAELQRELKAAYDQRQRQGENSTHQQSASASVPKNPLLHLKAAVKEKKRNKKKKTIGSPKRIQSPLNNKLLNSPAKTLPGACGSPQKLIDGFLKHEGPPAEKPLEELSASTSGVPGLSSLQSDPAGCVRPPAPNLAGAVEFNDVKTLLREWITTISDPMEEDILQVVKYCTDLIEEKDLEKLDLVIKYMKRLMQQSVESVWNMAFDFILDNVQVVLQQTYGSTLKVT

[3] = molecular target: T1, GST-MAD2L2; test: field-effect biosensing (FEB, Agile R100), immobilised protein; type: binding; settings: PBS; compound 1-50 μM; Hill fit or kon/koff; unreliable

T1 sequence (Q9UI95 whole entry, the tested form may be a part): as the sequence (Q9UI95 whole entry) above

Substance	Kd [1]	% reduction of MAD2L2-Rev1 binding at 50 μM [2]	kD [3]
ZINC25496030 [c#3]	44.9 ± 2.06 µM	~ 80%	–
ZINC97017995 [c#2]	–	–	310.8 ± 32.96 µM
